# Measurements reported in ChEMBL document CHEMBL1201862, “PubChem BioAssay data set” (2004).
#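 Exposure lasted 48 hours, with cells grown in 96-well plates and compounds tested at five concentrations. GI50: concentration for 50% inhibition of growth.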 Active and inactive are the calls of the source. Rule as the data show it: active = GI50 up to about 1.1 µM and inactive = higher.
# How the values were obtained:
# Assay in all cases: inhibition of tumour cell growth, NCI panel, 48 h
# [1] = test system: A549
# [2] = test system: ACHN
# [3] = test system: CCRF-CEM
# [4] = test system: COLO 205
# [5] = test system: DLD-1
# [6] = test system: EKVX
# [7] = test system: IGROV-1
# [8] = test system: K562
# [9] = test system: KM12
# [10] = test system: OVCAR-4
# [11] = test system: RXF 393
# [12] = test system: SK-MEL-2
# [13] = test system: SK-OV-3
# [14] = test system: SNB-19
# [15] = test system: HCT-15
# [16] = test system: SK-MEL-5
# [17] = test system: BT-549
# [18] = test system: Hs-578T
# [19] = test system: NCI/ADR-RES
# [20] = test system: T47D
SMILES,GI50 [1],GI50 [2],GI50 [3],GI50 [4],GI50 [5],GI50 [6],GI50 [7],GI50 [8],GI50 [9],GI50 [10],GI50 [11],GI50 [12],GI50 [13],GI50 [14],GI50 [15],GI50 [16],GI50 [17],GI50 [18],GI50 [19],GI50 [20]
COc1ccc(CC(=O)NCCc2ccc(OC)c(OC)c2)cc1Br,> 100 µM (inactive),> 100 µM (inactive),> 100 µM (inactive),> 100 µM (inactive),> 100 µM (inactive),> 100 µM (inactive),> 100 µM (inactive),> 100 µM (inactive),> 100 µM (inactive),> 100 µM (inactive),> 100 µM (inactive),> 100 µM (inactive),> 100 µM (inactive),> 100 µM (inactive),–,–,–,–,–,–
Clc1ccc(-c2c(C3=NCCN3)nnn2-c2ccccc2)cc1,> 100 µM (inactive),> 100 µM (inactive),> 100 µM (inactive),40.1 µM (inactive),> 100 µM (inactive),> 100 µM (inactive),> 100 µM (inactive),61.1 µM (inactive),> 100 µM (inactive),> 100 µM (inactive),> 100 µM (inactive),51.2 µM (inactive),> 100 µM (inactive),> 100 µM (inactive),> 100 µM,97.1 µM (inactive),–,–,–,–
CCC(=O)CCC1=Nc2nnc(CCCCc3nnc4n3C(=O)C(CCC(=O)CC)=N4)n2C1=O,> 100 µM (inactive),> 100 µM (inactive),> 100 µM (inactive),> 100 µM (inactive),> 100 µM (inactive),> 100 µM (inactive),> 100 µM (inactive),> 100 µM (inactive),> 100 µM (inactive),> 100 µM (inactive),> 100 µM (inactive),> 100 µM (inactive),> 100 µM (inactive),> 100 µM (inactive),> 100 µM,–,–,–,–,–
Cc1cccc(NC2=NC(=O)C(CC(=O)Nc3cccc(C)c3C)S2)c1 (stereo unspecified),> 100 µM (inactive),> 100 µM (inactive),25.8 µM (inactive),> 100 µM (inactive),> 100 µM (inactive),> 100 µM (inactive),> 100 µM (inactive),–,> 100 µM (inactive),> 100 µM (inactive),> 100 µM (inactive),> 100 µM (inactive),–,> 100 µM (inactive),–,> 100 µM (inactive),–,–,–,–
O=c1c2ccccc2n2cnc3ccc(NCCNCCO)c1c32,1.05 µM (active),0.836 µM (active),1.22 µM (inactive),0.834 µM (active),2.59 µM (inactive),2.56 µM (inactive),1.91 µM (inactive),1.34 µM (inactive),1.17 µM (inactive),1.44 µM (inactive),0.757 µM (active),3.03 µM (inactive),2.99 µM (inactive),3.78 µM (inactive),3.18 µM,1.88 µM (inactive),3.66 µM (inactive),2.37 µM (inactive),2.81 µM (inactive),4.76 µM (inactive)
C=CCC1(CN(C)C)CC/C(=C\c2ccc(OC)cc2)C1=O (stereo unspecified),> 100 µM (inactive),> 100 µM (inactive),34.8 µM (inactive),46.7 µM (inactive),34.2 µM (inactive),20.3 µM (inactive),> 100 µM (inactive),32.9 µM (inactive),74.3 µM (inactive),88.7 µM (inactive),> 100 µM (inactive),> 100 µM (inactive),–,> 100 µM (inactive),52 µM,41.5 µM (inactive),–,–,–,–
c1ccc(C2SCc3nc4ccccc4n32)cc1 (stereo unspecified),50.1 µM (inactive),59.3 µM (inactive),76.2 µM (inactive),37.8 µM (inactive),49.5 µM (inactive),39.4 µM (inactive),29.2 µM (inactive),32.8 µM (inactive),32.4 µM (inactive),66.7 µM (inactive),53.2 µM (inactive),29.6 µM (inactive),91.8 µM (inactive),32.2 µM (inactive),44.4 µM,18.6 µM (inactive),–,–,–,–
N#CCCN(CCC#N)c1ccc(/C=C(/NC(=O)c2cc([N+](=O)[O-])ccc2Cl)C(=O)NN)cc1,> 100 µM (inactive),> 100 µM (inactive),47.5 µM (inactive),> 100 µM (inactive),> 100 µM (inactive),> 100 µM (inactive),> 100 µM (inactive),> 100 µM (inactive),> 100 µM (inactive),> 100 µM (inactive),> 100 µM (inactive),> 100 µM (inactive),> 100 µM (inactive),> 100 µM (inactive),> 100 µM,> 100 µM (inactive),–,–,–,–
COc1ccc(/C=C2\CCC(CN3CCOCC3)C2=O)cc1 (stereo unspecified),9.57 µM (inactive),4.73 µM (inactive),1.38 µM (inactive),2.17 µM (inactive),2.79 µM (inactive),7.57 µM (inactive),4 µM (inactive),1.03 µM (active),5.65 µM (inactive),5.96 µM (inactive),0.942 µM (active),3.78 µM (inactive),16.4 µM (inactive),11.4 µM (inactive),2.39 µM,4.62 µM (inactive),2.25 µM (inactive),3.04 µM (inactive),2.62 µM (inactive),–
C#CC[N+](CCO)(CCO)CCCCCCCCCCCCCCCCCC,15.7 µM (inactive),–,2.03 µM (inactive),11.2 µM (inactive),9.25 µM (inactive),21.7 µM (inactive),2.18 µM (inactive),5.24 µM (inactive),3.55 µM (inactive),10.5 µM (inactive),2.48 µM (inactive),16.4 µM (inactive),17.6 µM (inactive),5.92 µM (inactive),15.3 µM,15.7 µM (inactive),–,–,20.2 µM (inactive),–
C=C(CN(C)C)C(=O)c1ccc(OC2OC(COC(C)=O)C(OC(C)=O)C(OC(C)=O)C2OC(C)=O)cc1 (stereo unspecified),21.2 µM (inactive),1.62 µM (inactive),0.185 µM (active),0.753 µM (active),0.912 µM (active),11.8 µM (inactive),13.4 µM (inactive),0.533 µM (active),17.6 µM (inactive),3.75 µM (inactive),1.76 µM (inactive),10.3 µM (inactive),19.4 µM (inactive),19.8 µM (inactive),3.03 µM,6.37 µM (inactive),2.61 µM (inactive),19.7 µM (inactive),–,2.9 µM (inactive)
O=C(Nc1cccc2ccccc12)Oc1ccccc1C1CCCCC1,21.4 µM (inactive),–,15 µM (inactive),> 10 µM (inactive),15.2 µM (inactive),22.6 µM (inactive),23 µM (inactive),24.2 µM (inactive),20.2 µM (inactive),16.3 µM (inactive),15 µM (inactive),18.2 µM (inactive),30.8 µM (inactive),53.6 µM (inactive),17.2 µM,15.5 µM (inactive),–,–,–,–
CC(=O)OCC1OC(n2c(=S)n(-c3ccccc3)c(=O)c3cc(Br)ccc32)C(OC(C)=O)C1OC(C)=O (stereo unspecified),> 100 µM (inactive),> 100 µM (inactive),–,> 100 µM (inactive),> 100 µM (inactive),> 100 µM (inactive),> 100 µM (inactive),–,> 100 µM (inactive),> 100 µM (inactive),> 100 µM (inactive),> 100 µM (inactive),> 100 µM (inactive),> 100 µM (inactive),> 100 µM,> 100 µM (inactive),–,–,–,–
NC(=O)C12CC3CC(CC(F)(C3)C1)C2,> 100 µM (inactive),> 100 µM (inactive),> 100 µM (inactive),> 100 µM (inactive),> 100 µM (inactive),> 100 µM (inactive),> 100 µM (inactive),> 100 µM (inactive),> 100 µM (inactive),–,> 100 µM (inactive),> 100 µM (inactive),> 100 µM (inactive),–,–,–,–,–,–,–
O=C(CC/C(CC(=O)c1ccc(Cl)cc1)=N/O)Nc1ccc(Cl)c(Cl)c1,> 100 µM (inactive),31.8 µM (inactive),> 100 µM (inactive),> 100 µM (inactive),> 100 µM (inactive),10.3 µM (inactive),47.6 µM (inactive),50.4 µM (inactive),> 100 µM (inactive),43.4 µM (inactive),–,38.3 µM (inactive),> 100 µM (inactive),> 100 µM (inactive),48.1 µM,76.2 µM (inactive),–,–,–,–
[O-][S+]1[C@H](c2ccccc2)c2c(-c3ccccc3)sc(-c3ccccc3)c2[C@@H]1c1ccccc1 (stereo partly specified),10.8 µM (inactive),5.89 µM (inactive),89.7 µM (inactive),23.1 µM (inactive),33 µM (inactive),0.286 µM (active),> 100 µM (inactive),6.44 µM (inactive),12.5 µM (inactive),8.49 µM (inactive),23.1 µM (inactive),32.7 µM (inactive),> 100 µM (inactive),77.1 µM (inactive),7.1 µM,6.15 µM (inactive),–,–,–,–
